According to paper PMC10928712, “High Target Homology Does Not Guarantee Inhibition: Aminothiazoles Emerge as Inhibitors of Plasmodium falciparum” (ACS Infectious Diseases, 2024):
≈ marks a conversion by molar mass, not a printed value. Where “and” joins values, the source holds several entries; their conditions need not be identical. Equal entries are not always repeated.

How the values were obtained:
[1] = test system: P. falciparum Dd2; experiment: Method III growth inhibition assay (HRP2-ELISA, 3 days), Dd2; format: cell-based, Plasmodium falciparum
[2] = Kinetic solubility determination; format: physicochemical; settings: PBS buffer and 2% DMSO; for solubility at 5 min: PBS with 2% DMSO, aqueous buffer, kinetic from dmso stock, read-out: Max. solubility
Protocol: The desired compounds were sequentially diluted in DMSO in a 96-well plate. 3 μL of each well was transferred into another 96-well plate and mixed with 147 μL of PBS. Plates were shaken for 5 min at 600 rpm at room temperature (r.t.), and the absorbance at 620 nm was measured. Absorbance values were normalized by blank subtraction and plotted using GraphPad Prism 8.4.2 (GraphPad Software, San Diego, California, USA). Solubility (S) was determined based on the First X value of AUC function using a threshold of 0.005.

[3] = test system: P. falciparum 3D7; experiment: Method III growth inhibition assay (HRP2-ELISA, 3 days), 3D7; format: cell-based, Plasmodium falciparum
[4] = test system: P. falciparum 3D7; experiment: IDP rescue assay, P. falciparum 3D7; format: cell-based; settings: Plasmodium falciparum
Protocol: (§1) Fidock (Columbia University). […] P. falciparum cultures were treated as described in method II. For IDP (Isoprenoids.com) rescue experiments, 125 μM IDP was added to the appropriate wells for the duration of the experiment. The well-described DXR inhibitor FSM was used as a positive control. IC50 values were calculated by nonlinear regression analysis using GraphPad Prism software. All experiments were performed at least in triplicate, and data reported represent the mean ± SD.

[5] = test system: P. falciparum NF54; experiment: IDP rescue assay, P. falciparum NF54; format: cell-based; settings: Plasmodium falciparum
Protocol: as §1

[6] = test system: Hep G2 cells; experiment: Hep G2 viability assay (counter screen); format: cell-based, human; settings: for IC50: HepG2, 48 h, cytotoxicity, 48 h
Protocol: HepG2 cells (2 × 10^5 cells per well) were seeded in 24-well, flat-bottomed plates. Culturing of cells, incubations, and OD measurements were performed as described previously with small modifications.[58] 24 h after seeding the cells, the incubation was started by the addition of compounds in a final DMSO concentration of 1%. The metabolic activity of the living cell mass was determined after 48 h. At least three independent measurements were performed for each compound. The IC50 values were determined during logarithmic growth using GraphPad Prism software. All experiments were performed at least in triplicate, and data reported represent the mean ± SD.

[7] = test system: P. falciparum NF54; experiment: Method II growth-inhibition assay (PicoGreen, 3 days), NF54; format: cell-based; settings: Plasmodium falciparum; chloroquine-sensitive NF54, method II
Description: (§2) Fidock (Columbia University).

[8] = test system: P. falciparum 3D7; experiment: Method II growth-inhibition assay (PicoGreen, 3 days), 3D7; format: cell-based; settings: Plasmodium falciparum; 3D7, method II; read-out: IC50 3D7-II
Description: as §2

[9] = Metabolic stability in human liver S9 fraction; format: in vitro ADME; settings: human, pooled liver S9 fraction, 1 μM compound
Protocol: For the evaluation of combined phase I and phase II metabolic stability, the compound (1 μM) was incubated with 1 mg/mL pooled liver S9 fraction (XenoTech), 2 mM NADPH, 1 mM UDPGA, 10 mM MgCl2, 5 mM GSH, and 0.1 mM PAPS at 37 °C for 0, 5, 15, 30, and 60 min. The metabolic stabilities of testosterone (1 μM), verapamil (1 μM), and propranolol (1 μM) were determined in parallel to confirm the enzymatic activity of the S9 fraction. The incubation was stopped by precipitation of S9 enzymes with two volumes of cold acetonitrile containing internal standard (150 nM diphenhydramine). Samples were stored on ice for 10 min, and precipitated protein was removed by centrifugation (15 min, 4 °C, 4000 rpm). The concentration of the remaining test compound at the different time points was analyzed by LC-MS/MS (TSQ Quantum Access MAX, Thermo Fisher, Dreieich, Germany) and used to determine half-life (t1/2).

[10] = Plasmodium falciparum, DD2, chloroquine-resistant Dd2, method III
[11] = Plasmodium falciparum, 3D7, 3D7, method III (HRP2 assay), drc package of R, read-out: IC50 P. falciparum 3D7 (method III)
[12] = 3D7, method III (HRP2 assay), drc package of R, read-out: IC50 P. falciparum 3D7 (method III)
[13] = Plasmodium falciparum, 3D7, table of compounds as SMILES with biological activity, strain not given, values match 3D7 method III, read-out: IC50
[14] = chloroquine-resistant Dd2, method III
[15] = table of compounds as SMILES with biological activity, strain not given, values match 3D7 method III, read-out: IC50

COc1cc(O)ccc1/C(Cc1ccc(N)cc1)=N/O [compound 4, (E)-2-(4-Aminophenyl)-1-(4-hydroxy-2-methoxyphenyl)ethan-1-one oxime]
IC50 [1, 10]: 94 ± 16 µM
Max. solubility [2]: 202.6 ± 1.6 µM
solubility at 5 min [2]: ~200 µM (≈ 54.5 µg/mL)
IC50 [3, 11]: > 111 µM

OCc1cn(Cc2ccc(Cl)c(Cl)c2)c2cccc(F)c12 [compound 33, (1-(3,4-Dichlorobenzyl)-4-fluoro-1H-indol-3-yl)methanol]
IC50 ([4]; 3D7, 72 h, + IDP (125 μM)): 3.1 µM
IC50 ([4]; 3D7, without IDP): 2.7 ± 0.3 µM
IC50 ([5]; NF54, 72 h, + IDP (125 μM)): 2.2 µM
IC50 ([5]; NF54, without IDP): 2.4 ± 0.6 µM
IC50 [1, 10]: 3 µM
IC50 ([6]; Homo sapiens): 0.79 ± 0.37 µM
IC50 [7]: 3 ± 1 µM
IC50 [3, 12]: 2 µM
IC50 [3, 11]: 3 µM
IC50 [3, 13]: 2.4 µM
IC50 [8]: 3 µM

Nc1ccc(C/C(=N\O)c2ccc(O)cc2O)cc1 [compound 5, (E)-2-(4-Aminophenyl)-1-(2,4-dihydroxyphenyl)ethan-1-one oxime]
IC50 [1, 10]: > 111 µM
Max. solubility [2]: 193.6 ± 95.7 µM
solubility at 5 min [2]: ~200 µM (≈ 51.7 µg/mL)
IC50 [3, 11]: > 111 µM

COc1ccc(/C(Cc2ccc(N)cc2)=N/O)c(OC)c1 [compound 6, (E)-2-(4-Aminophenyl)-1-(2,4-dimethoxyphenyl)ethan-1-one oxime]
IC50 [1, 10]: > 111 µM
solubility at 5 min [2]: 119 ± 27.4 µM (≈ 34.2 µg/mL)
IC50 [3, 11]: > 111 µM

NN=C(Cc1ccc(Cl)cc1)c1ccc(O)cc1O [compound 12]
IC50 [1, 10]: 14 ± 5 µM
IC50 [7]: 45 ± 7 µM
IC50 [3, 11]: 16 µM
IC50 [8]: 46 ± 3 µM

OCc1cn(Cc2ccc(Cl)c(Cl)c2)c2ccc(F)cc12 [compound 32]
IC50 [1, 10]: 8 ± 2 µM
IC50 [3, 12]: 5 ± 1 µM
IC50 [3, 11]: < 10 µM
IC50 [3, 13]: 5.3 µM

Clc1ccc(Cn2ccc3ccccc32)cc1Cl [compound 28, 1-(3,4-Dichlorobenzyl)-1H-indole]
IC50 [1, 10]: 18 ± 7 µM
IC50 [3, 12]: 8.1 µM
IC50 [3, 11]: ~8 µM

COc1ccc(CNCc2cn(Cc3ccc(Cl)c(Cl)c3)c3ccccc23)c(OC)c1 [compound 34, 1-(1-(3,4-Dichlorobenzyl)-1H-indol-3-yl)-N-(2,4-dimethoxybenzyl)methan-amine]
IC50 [1, 10]: 21 ± 6 µM
inhibition at 10 µM ([6]; Homo sapiens, HepG2, at 10 μM): 90%

COc1cccc2c1c(CO)cn2Cc1ccc(Cl)c(Cl)c1 [compound 31, (1-(3,4-Dichlorobenzyl)-4-methoxy-1H-indol-3-yl)methanol]
IC50 [1, 10]: 5 ± 2 µM
IC50 [3, 11]: 6 ± 2 µM
IC50 [3, 13]: 5.5 µM

COc1ccc(C(Cc2ccc(Cl)cc2)=NO)cn1 [7Z, 2-(4-Chlorophenyl)-1-(6-methoxypyridin-3-yl)ethan-1-one oxime]
IC50 [1, 14]: > 111 µM
IC50 [3, 12]: > 111 µM

OCc1cn(Cc2cccc(Cl)c2)c2cccc(F)c12 [compound 24, (1-(3-Chlorobenzyl)-4-fluoro-1H-indol-3-yl)methanol]
IC50 [1, 10]: 10 ± 1 µM
IC50 [3, 11]: 12 ± 1 µM

CON=C(Cc1ccc(Cl)cc1)c1ccc(O)cc1O [compound 11, (E)-2-(4-Chlorophenyl)-1-(2,4-dihydroxyphenyl)ethan-1-one o-Methyl Oxime]
IC50 [1, 10]: 19 ± 3 µM
IC50 [3, 11]: 28 ± 9 µM

Cc1ccc(Nc2nc(-c3ccc(O)c(O)c3)cs2)cc1C [compound 42, 4-(2-((3,4-Dimethylphenyl)amino)thiazol-4-yl)benzene-1,2-diol]
IC50 [1, 10]: 7 ± 1 µM
IC50 [3, 11]: 4 ± 1 µM
IC50 [3, 13]: 4.4 µM

O=CN(O)CCCP(=O)(O)O [FSM, fosmidomycin, reference compound]
IC50 ([4]; 3D7, 72 h, + IDP (125 μM)): 37.4 ± 18.2 µM
IC50 ([4]; 3D7, without IDP): 0.9 ± 0.4 µM
IC50 ([5]; NF54, 72 h, + IDP (125 μM)): 7.8 ± 0.3 µM
IC50 ([5]; NF54, without IDP): 0.9 ± 0.5 µM
IC50 [7]: 0.7 ± 0.3 µM
IC50 [8]: 0.9 ± 0.2 µM

Cc1nc(N)sc1-c1csc(Nc2ccc(Cl)cn2)n1 [compound 47]
IC50 ([4]; 3D7, 72 h, + IDP (125 μM)): 2.2 µM
IC50 ([4]; 3D7, without IDP): 2 ± 0.7 µM
IC50 ([5]; NF54, 72 h, + IDP (125 μM)): 1.2 µM
IC50 ([5]; NF54, without IDP): 1.6 ± 0.3 µM
IC50 [1, 10]: 2 µM
IC50 [7]: 2 µM
IC50 [3, 11]: 1 µM
IC50 [8]: 2 ± 1 µM

OCCc1cn(Cc2ccc(Cl)c(Cl)c2)c2ccccc12 [compound 19, 2-(1-(3,4-Dichlorobenzyl)-1H-indol-3-yl)ethan-1-ol]
IC50 [1, 10]: 12 ± 3 µM
IC50 [3, 11]: 29 ± 1 µM
IC50 [3, 13]: 28.9 µM

2′,4′-Dimethyl-N-(4-(trifluoromethyl)phenyl)-[5,5′-bithiazol]-2-amine [compound 41]
IC50 [1, 14]: 5 µM
IC50 [3, 12]: ~10 µM and 10 µM
IC50 [3, 15]: 9.5 µM

OCc1cn(Cc2ccc(Cl)c(Cl)c2)c2ncccc12 [compound 14, (1-(3,4-Dichlorobenzyl)-1H-pyrrolo[2,3-b]pyridin-3-yl)methanol]
IC50 [1, 10]: 91 ± 18 µM
IC50 [3, 11]: > 111 µM

Nc1ccc(C(Cc2ccc(Cl)cc2)=NO)c(O)c1 [compound 10]
half-life at 1 μM [9]: 0.9333 ± 0.00667 h
IC50 [1, 10]: 24 ± 4 µM
IC50 ([6]; Homo sapiens): 50 to 100 µM
IC50 [3, 11]: 38 ± 11 µM
IC50 [3, 13]: 38.2 µM

Cc1ccc(Nc2nc(-c3ccccn3)cs2)cc1C [compound 46, N-(3,4-Dimethylphenyl)-4-(pyridin-2-yl)thiazol-2-amine]
IC50 ([4]; 3D7, 72 h, + IDP (125 μM)): 2.8 µM
IC50 ([4]; 3D7, without IDP): 2.3 ± 0.4 µM
IC50 ([5]; NF54, 72 h, + IDP (125 μM)): 1.2 µM
IC50 ([5]; NF54, without IDP): 2.1 ± 0.8 µM
IC50 [1, 10]: 2 µM
IC50 [7]: 2 ± 1 µM
IC50 [3, 11]: 2 ± 1 µM
IC50 [3, 13]: 1.5 µM
IC50 [8]: 2 µM

Cc1ccc(C)c(Nc2nc(-c3ccccn3)cs2)c1 [compound 43, N-(2,5-Dimethylphenyl)-4-(pyridin-2-yl)thiazol-2-amine]
IC50 [1, 10]: 5 ± 1 µM
IC50 [3, 11]: 4 ± 2 µM
IC50 [3, 13]: 3.7 µM

Cc1nc(N)sc1-c1csc(Nc2cccc(C(F)(F)F)c2)n1 [compound 45]
IC50 [1, 10]: 5 µM
IC50 [3, 11]: 3 µM
IC50 [3, 13]: 2.5 µM

OCc1nn(Cc2ccc(Cl)c(Cl)c2)c2ccccc12 [compound 18, (1-(3,4-Dichlorobenzyl)-1H-indazol-3-yl)methanol]
IC50 [1, 10]: 70 ± 21 µM
IC50 [3, 11]: 34 µM
IC50 [3, 13]: 33.9 µM

Oc1ccc(C(O)Cc2ccc(Cl)cc2)c(O)c1 (stereo not drawn) [compound 13, 4-(2-(4-Chlorophenyl)-1-hydroxyethyl)benzene-1,3-diol]
half-life at 1 μM [9]: 1.63 ± 0.167 h
IC50 [1, 10]: 28 ± 13 µM
IC50 ([6]; Homo sapiens): > 100 µM
cytotoxicity towards Hep G2 cells ([6]; at 100 μM): no cytotoxicity
IC50 [3, 12]: 10 ± 2 µM
IC50 [3, 11]: 9.9 ± 1.7 µM

COc1cccc2c1c(CO)cn2Cc1cccc(Cl)c1 [compound 22, (1-(3-Chlorobenzyl)-4-methoxy-1H-indol-3-yl)methanol]
IC50 [1, 10]: 14 ± 4 µM
IC50 [3, 11]: 16 ± 3 µM
IC50 [3, 13]: 13.8 µM
IC50 [3, 15]: 15.6 µM

N#Cc1ccc2c(CO)cn(Cc3ccc(Cl)c(Cl)c3)c2c1 [compound 17]
IC50 [1, 10]: 44 ± 9 µM
IC50 [3, 11]: 44 ± 19 µM
IC50 [3, 13]: 43.8 µM
